Patent US11512078B2, “Addition salt of S1P1 receptor agonist and crystal form thereof, and pharmaceutical composition” (SUZHOU CONNECT BIOPHARMACEUTICALS, LTD., priority 2018, dated 2022)
Like-named read-outs stand apart in the source and are kept apart here.

Experiments:
[1] = Solubility of sodium salt in water (water gradually added until clear); format: physicochemical; settings: thermodynamic from solid; in water at 25° C.; deionized water gradually added, ultrasonication to clear solution
Experimental: The solubility of the sample in water was calculated.

[2] = Storage stability of sodium salt crystal form, 4 months; format: physicochemical; settings: room temperature, relative humidity 10%-90%
[3] = Crystal form stability of salt forms as suspensions in solvents; settings: for Crystal form after stirring suspension: room temperature
[4] = Thermal stability, decomposition temperature by TGA; format: physicochemical
Experimental: Thermogravimetric Analysis (TGA) data were collected with TA Instruments Q500 TGA. The detection method used was as follows: 5-15 mg of a samples was placed in a platinum crucible, and a segmented high-resolution detection method was adopted in which the temperature of the sample was increased from room temperature to 300° C. at a heating rate of 10° C./min under the protection of 40 mL/min dry N2.

[5] = Solubility of free state and salt forms in water by HPLC; format: physicochemical; settings: stirred 2 h at 25° C., filtered
Experimental: HPLC solubility data were collected with Agilent 1260 high performance liquid chromatograph. The chromatographic column used was Poroshell 120 EC-C18 ([…]), the detection wavelength was 254 nm, column temperature for detection was 40° C., flow rate was 1.5 mL/min, and the sample volume was 5 μL. A sample was dissolved in mobile phase B to prepare a sample solution of a concentration about 0.45 mg/mL, and HPLC detection was performed according to the following gradient elution mode to obtain concentration in the sample.
Then samples were taken and filtered, and the concentrations were detected by HPLC. The solubility of the active ingredient in each of the samples in water was calculated.

[6] = Hygroscopicity by DVS; format: physicochemical; settings: relative humidity 20%-80%; for Moisture uptake: DVS; for Appearance: after DVS
Experimental: Dynamic Vapor Sorption (DVS) data and isothermal sorption analysis data were collected with TA Instruments Q5000 TGA. The detection method used was as follows: 1-10 mg of a sample was placed in a platinum crucible, and weight change with the change of relative humidity from 20% to 80% was detected.

[7] = Crystal form storage stability, 30 days under conventional, high-temperature and accelerated conditions; format: physicochemical; settings: 1 month under conventional, high-temperature (60° C.) and accelerated conditions (40° C.-75% relative humidity)
Experimental: The crystal form of the sulfate of the compound represented by formula A and the crystal form of the maleate of the compound represented by formula A according to the present application were taken to perform a stability experiment. Specific operation was as follows: 60 mg of the samples of the crystal form of the sulfate of the compound represented by formula A and the crystal form of the maleate of the compound represented by formula A according to the present application were taken and placed for 30 days respectively under conventional condition (sealed and placed in a dark place at 25° C.), high-temperature condition (sealed and placed in a dark place at 60° C.) and accelerated condition (opened and placed in a dark place at 40° C.-75% relative humidity) to study crystal form stability.

[8] = start: crystal forms I-XII and amorphous form, cited from earlier work
[9] = Crystal form stability of free state in solvents (Comparative Example 1 of CN105315266A); format: physicochemical
Text: Identification, preparation, a composition and use of the compound represented by formula A are disclosed in patent document CN103450171A (which is incorporated herein by reference in its entirety). Specifically, a method for preparing the compound is disclosed in Example 2. 12 crystal forms of the compound represented by formula A are disclosed in patent document CN105315266A (which is incorporated herein by reference in its entirety).

| SMILES | Crystal form after stirring suspension ([3]; Acetone, 3 days) | Crystal form after stirring suspension ([3]; Ethanol, 3 days) | Crystal form after stirring suspension ([3]; Isopropanol, 3 days) | Crystal form after stirring suspension ([3]; Water, 3 days) | Crystal form after stirring suspension ([3]; Water:acetone = 1:1, 3 days) | Crystal form after stirring suspension ([3]; Water:acetone = 1:5, 3 days) | Crystal form after stirring suspension ([3]; Water:acetone = 1:10, 3 days) | Crystal form after stirring suspension ([3]; Water:acetone = 1:100, 3 days) | Crystal form after stirring suspension ([3]; Water:ethanol = 1:1, 3 days) | Crystal form after stirring suspension ([3]; Water:ethanol = 1:5, 3 days) | Crystal form after stirring suspension ([3]; Water:ethanol = 1:10, 3 days) | Crystal form after stirring suspension ([3]; Water:ethanol = 1:100, 3 days) | Stability of crystal form in aqueous systems [3] | Solubility [5] | Moisture uptake [6] | Appearance [6] | Appearance, XRPD pattern and melting point after storage [7] | also measured |
| --- | --- | --- | --- | --- | --- | --- | --- | --- | --- | --- | --- | --- | --- | --- | --- | --- | --- | --- |
| CC(C)Cc1ccc(-c2nc(-c3ccc(CN4CC(C(=O)[O-])C4)c(F)c3)no2)cc1.[Na+] [sodium salt of 1-{2-fluoro-4-[5-(4-isobutylphenyl)-1,2,4-oxadiazole-3-yl]benzyl}-3-azetidinecarboxylic acid] | No change | No change | No change | No change | No change | No change | No change | No change | No change | No change | No change | No change | stable | – | – | – | – | Solubility [1]: 10000 µg/mL; Appearance, XRPD pattern and melting point after storage [2]: unchanged; Decomposition temperature [4]: 275 °C |
| CC(C)Cc1ccc(-c2nc(-c3ccc(CN4CC(C(=O)O)C4)c(F)c3)no2)cc1 [sulfate of 1-{2-fluoro-4-[5-(4-isobutylphenyl)-1,2,4-oxadiazole-3-yl]benzyl}-3-azetidinecarboxylic acid] | No change | No change | No change | No change | No change | No change | No change | No change | No change | No change | No change | No change | stable | 19.2 µg/mL | 0.7% | Powder | unchanged | Solubility ([5]; listed as sulfate of the compound represented by formula A): 19 µg/mL |
| CC(C)Cc1ccc(-c2nc(-c3ccc(CN4CC(C(=O)O)C4)c(F)c3)no2)cc1 [1-{2-fluoro-4-[5-(4-isobutylphenyl)-1,2,4-oxadiazole-3-yl]benzyl}-3-azetidinecarboxylic acid] | – | – | – | – | – | – | – | – | – | – | – | – | – | – | – | – | – | Final crystal form ([8]; Acetone): Crystal form IV; Final crystal form ([8]; Ethanol): Crystal form IV; Final crystal form ([8]; Isopropanol): Crystal form IV; Final crystal form ([8]; Water:acetone = 1:1): Crystal form I; Final crystal form ([8]; Water:acetone = 1:5): Crystal form I; Final crystal form ([8]; Water:acetone = 1:10): Crystal form I; Final crystal form ([8]; Water:acetone = 1:100): Crystal form I; Final crystal form ([8]; Water:ethanol = 1:1): Crystal form I; Final crystal form ([8]; Water:ethanol = 1:5): Crystal form I; Final crystal form ([8]; Water:ethanol = 1:10): Crystal form I; Final crystal form ([8]; Water:ethanol = 1:100): Crystal form I; Final crystal form ([8]; Water): Crystal form I; Solubility ([5]; listed as compound represented by formula A): 1.1 µg/mL; Most stable crystal form ([9]; in an organic solvent): crystal form IV; Most stable crystal form ([9]; in water): crystal form I |
| CC(C)Cc1ccc(-c2nc(-c3ccc(CN4CC(C(=O)O)C4)c(F)c3)no2)cc1.O=C(O)/C=C\C(=O)O [maleate of 1-{2-fluoro-4-[5-(4-isobutylphenyl)-1,2,4-oxadiazole-3-yl]benzyl}-3-azetidinecarboxylic acid] | No change | No change | No change | No change | No change | No change | No change | No change | No change | No change | No change | No change | stable | 16.1 µg/mL | 0.4% | Powder | unchanged | solubility at 2 h ([5]; deionized water, 25 °C, water, thermodynamic from solid): 16 µg/mL |
